Measured values taken from article PMC10804683, “Identification of the pyridoxal 5′‐phosphate allosteric site in human pyridox(am)ine 5′‐phosphate oxidase” (Protein Science : A Publication of the Protein Society, 2024).
Where a chain is given by its changes, count along the chain named. “Also recorded” adds a separate entry of the source.

How the values were obtained:
[1] = target: T1, apo-PNPO F48A/E50L/R161C/R258L (Homo sapiens, UniProt Q9NVS9, E50L/F48A/R161C/R258L); test: PLP binding by intrinsic fluorescence, apo F48A/E50L/R161C/R258L; conditions: excitation 280 nm, 100 nM enzyme
T1 construct: together with a main form corresponding to the entire protein (estimated molecular mass of 31.0 ± 0.7 kDa); made in house; host or cells: E. coli BL21(DE3)
T1 sequence (Q9NVS9 1-261 F48A/E50L/R161C/R258L): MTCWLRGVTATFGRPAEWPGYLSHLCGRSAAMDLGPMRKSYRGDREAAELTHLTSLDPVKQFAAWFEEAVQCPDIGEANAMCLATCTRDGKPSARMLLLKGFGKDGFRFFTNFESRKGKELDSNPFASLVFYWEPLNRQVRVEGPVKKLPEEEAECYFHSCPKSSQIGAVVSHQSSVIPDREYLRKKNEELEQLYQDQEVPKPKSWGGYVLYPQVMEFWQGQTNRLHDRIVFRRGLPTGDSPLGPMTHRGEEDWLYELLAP
Description: PLP binding to PNPO can be detected and quantitatively measured using differential scanning fluorimetry (DSF) and also by measuring FMN fluorescence changes. We had previously attributed DSF changes to PLP binding at the active site, while FMN fluorescence changes were attributed to PLP binding at the allosteric site (Barile et al., [2019], [2020]). Previous experiments carried out with the PNPO R161C variant, affecting a residue that is essential for substrate binding and catalysis (and therefore also for PLP binding at the active site), confirms that DSF measurements only report PLP binding at the active site (Barile et al., [2021]; Table 1). […] We expected to observe no FMN fluorescence changes upon titration of the variants with PLP. However, this was not the case, and the dissociation constant values obtained by observing the FMN fluorescence emission were only up to threefold larger in the variants with respect to wild type PNPO (Figure 3). […] To check the second possibility, we measured intrinsic fluorescence changes of wild type and variant apo‐forms (i.e., without FMN) upon PLP titration. […]
Analyses of PLP binding, based on FMN fluorescence increase observed upon binding of PLP to PNPO, were performed as described in Barile et al. ([2020]). […] Emission spectra were recorded from […], with excitation and emission slits set at 3 and 5 nm, respectively. […]

[2] = target: T2, human PNPO F48A/E50L/H248N/R258L variant (Homo sapiens, UniProt Q9NVS9, E50L/F48A/H248N/R258L); test: PLP inhibition kinetics of PNP oxidation, quadruple variant; type: biochemical; conditions: Na-HEPES pH 7.6, 2 μM enzyme, PLP 0–16 μM
T2 construct: a main form corresponding to the entire protein; made in house; host or cells: E. coli BL21(DE3)
T2 sequence (Q9NVS9 1-261 F48A/E50L/H248N/R258L): T1 sequence (Q9NVS9 1-261 F48A/E50L/R161C/R258L) with C161R, H248N
Protocol: This is a general inhibition mechanism that takes into account the possibility of PLP binding to both the active and allosteric sites. PLP binding at the active site gives a complete, competitive inhibition, whereas PLP binding at the allosteric site yields a substrate‐enzyme‐PLP ternary complex that is still catalytically active, although k CAT is reduced by a coefficient whose value is around 0.15. A thorough inhibition kinetic characterization was carried out with the wild type, F48A, F48A/E50L/R258L, and F48A/E50L/H248N/R258L PNPO forms, so as to evaluate the effect of the variations on the allosteric properties of the enzyme. The initial velocity of PNP conversion into PLP was measured in Na‐HEPES buffer (in which PLP is allowed to accumulate) by varying substrate concentration at different, fixed exogenous PLP concentrations, using 2 μM enzyme. A series of saturation curves were obtained that were used to fit the Michaelis–Menten equation (Figure 5), acquiring apparent V MAX and K M values as a function of PLP concentration. […]
FIGURE 5 Characterization of PLP inhibition. Upper panels: The initial velocity of the reaction was measured with 2 μM wild type (a), and the F48A (b), F48A/E50L/R258L (c), and F48A/E50L/H248N/R258L (d) PNPO variants, varying PNP concentration while keeping exogenous PLP fixed at different concentrations (0, 0.25, 0.5, 1, 2, 4, 8, and 16 μM). […]

Compound: Cc1ncc(COP(=O)(O)O)c(C=O)c1O [PLP, pyridoxal 5′‐phosphate]
- Apo-enzyme PLP binding KD^FLUO [1]: no variation in the emitted fluorescence was observed; also recorded: No binding
- type of inhibition of PNP oxidation by PLP [2]: pure competitive inhibition
